Data on one molecule can be found in PMC6193938, “Characterization of a novel AICARFT inhibitor which potently elevates ZMP and has anti-tumor activity in murine models” (Scientific Reports, 2018).

Each structure is given as a SMILES string.

One assay concerns MDA-MB-231met2. Description: In vitro proliferation assay (Alamar Blue). The format is cell-based, human. How it is done: Cells lines were acquired from cell banks, see supplemental material, grown using the cell banks recommended culture conditions (Supplemental Table 3). In some experiments noted “low folate” the cells were washed and grown in folate free RPMI-1640 media (Gibco #27016-021) supplemented with 5 ml 1 M Hepes, 5 ml 100 mM Na pyruvate, 2.5 mg/ml glucose and 10% defined FBS (Hyclone #SH30070) per 500 mL media for 5–7 days to deplete intracellular folate levels prior to the start of the experiment. Where noted, cells were maintained in complete “high folate” RPMI-1640 media (ATCC #30-2001) with 10% defined FBS to contrast with the low folate conditions. […]
Cells were cultured using recommended culture conditions unless noted otherwise (Supplemental Table 3). Cells were plated, dosed with compound and incubated at 37 °C for approximately 2 doubling times as determined for each cell line. Cell Titer Glo (Promega) assay was used to measure proliferation according to manufacturer’s recommendations by measuring luminescence with Flexstation3 (Molecular Devices) with 500 ms integration time. […]
For a limited number of cell lines, compound dosing was performed under high or low folate conditions with cell viability being determined with Alamar Blue rather than an ATP dependent assay. […] The % inhibition for each sample was calculated and fit as described above.

Another assay relates to protein kinase. Description: Panel of protein kinase assays at CEREP Panlabs (Eurofins), overall. It is filed as biochemical.
The target in the next assay is T1, CDK2 (Homo sapiens, UniProt P24941).
T1 construct: purchased CEREP Panlabs (Eurofins)
Description: CEREP protein kinase assay. It is filed as biochemical.

In another assay the target is T2, FLT4 (Homo sapiens, UniProt P35916).
T2 construct: purchased CEREP Panlabs (Eurofins)
T2 sequence (P35916 25-1363): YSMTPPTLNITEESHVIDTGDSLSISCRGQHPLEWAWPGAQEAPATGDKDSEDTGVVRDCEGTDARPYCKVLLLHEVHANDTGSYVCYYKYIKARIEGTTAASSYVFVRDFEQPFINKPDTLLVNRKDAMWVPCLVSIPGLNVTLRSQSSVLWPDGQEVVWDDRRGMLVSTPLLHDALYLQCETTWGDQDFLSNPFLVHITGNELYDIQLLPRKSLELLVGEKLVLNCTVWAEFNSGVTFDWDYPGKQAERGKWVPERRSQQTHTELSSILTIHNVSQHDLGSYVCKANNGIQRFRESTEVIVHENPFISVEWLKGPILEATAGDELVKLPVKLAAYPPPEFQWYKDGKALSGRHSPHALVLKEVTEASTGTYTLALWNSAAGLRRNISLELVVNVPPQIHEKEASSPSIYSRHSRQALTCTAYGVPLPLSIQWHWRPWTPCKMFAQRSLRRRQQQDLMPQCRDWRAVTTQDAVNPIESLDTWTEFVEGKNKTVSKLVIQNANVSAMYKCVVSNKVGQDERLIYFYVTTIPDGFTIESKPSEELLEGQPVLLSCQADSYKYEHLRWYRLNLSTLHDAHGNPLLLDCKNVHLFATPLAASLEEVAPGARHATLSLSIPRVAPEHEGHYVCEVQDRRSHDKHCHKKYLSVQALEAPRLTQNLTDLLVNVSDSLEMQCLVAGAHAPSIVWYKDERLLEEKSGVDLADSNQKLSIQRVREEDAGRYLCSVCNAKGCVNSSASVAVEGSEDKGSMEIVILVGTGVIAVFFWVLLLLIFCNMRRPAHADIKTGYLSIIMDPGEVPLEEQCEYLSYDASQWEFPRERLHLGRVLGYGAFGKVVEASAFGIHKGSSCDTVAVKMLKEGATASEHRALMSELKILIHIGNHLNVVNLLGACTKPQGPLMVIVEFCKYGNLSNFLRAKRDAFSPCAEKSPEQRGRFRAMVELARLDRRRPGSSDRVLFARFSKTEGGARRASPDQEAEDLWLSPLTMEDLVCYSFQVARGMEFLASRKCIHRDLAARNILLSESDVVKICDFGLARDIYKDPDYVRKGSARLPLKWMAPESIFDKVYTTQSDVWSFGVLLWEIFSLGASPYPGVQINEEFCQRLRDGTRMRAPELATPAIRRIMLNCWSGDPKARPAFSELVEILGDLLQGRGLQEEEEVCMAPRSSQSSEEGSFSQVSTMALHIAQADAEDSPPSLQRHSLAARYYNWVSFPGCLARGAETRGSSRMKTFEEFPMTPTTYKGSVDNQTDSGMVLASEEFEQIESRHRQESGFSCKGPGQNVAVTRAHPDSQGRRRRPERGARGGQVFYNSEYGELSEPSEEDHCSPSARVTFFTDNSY
Description: CEREP protein kinase assay. The format is biochemical.

The next assay has as its target T3, LCK (Homo sapiens, UniProt P06239).
T3 construct: purchased CEREP Panlabs (Eurofins)
In words: CEREP protein kinase assay. The format is biochemical.

Another assay has as its target T4, NEK2 (Homo sapiens, UniProt P51955).
T4 construct: purchased CEREP Panlabs (Eurofins)
T4 sequence (P51955 1-445): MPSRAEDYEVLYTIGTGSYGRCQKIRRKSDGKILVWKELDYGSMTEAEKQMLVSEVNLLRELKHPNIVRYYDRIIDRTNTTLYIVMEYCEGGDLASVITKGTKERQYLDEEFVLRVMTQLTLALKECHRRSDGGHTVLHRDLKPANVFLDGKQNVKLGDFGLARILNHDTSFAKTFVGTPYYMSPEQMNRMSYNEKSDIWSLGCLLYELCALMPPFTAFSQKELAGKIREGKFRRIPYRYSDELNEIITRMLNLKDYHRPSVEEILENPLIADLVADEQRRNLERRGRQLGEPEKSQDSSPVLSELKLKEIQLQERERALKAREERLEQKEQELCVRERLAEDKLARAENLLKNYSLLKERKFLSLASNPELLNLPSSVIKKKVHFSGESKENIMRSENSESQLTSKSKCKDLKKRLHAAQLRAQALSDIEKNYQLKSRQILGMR
Description: CEREP protein kinase assay. It is filed as biochemical.

In another assay the target is T5, TNK1 (Homo sapiens, UniProt Q13470).
T5 construct: purchased CEREP Panlabs (Eurofins)
T5 sequence (Q13470 1-666): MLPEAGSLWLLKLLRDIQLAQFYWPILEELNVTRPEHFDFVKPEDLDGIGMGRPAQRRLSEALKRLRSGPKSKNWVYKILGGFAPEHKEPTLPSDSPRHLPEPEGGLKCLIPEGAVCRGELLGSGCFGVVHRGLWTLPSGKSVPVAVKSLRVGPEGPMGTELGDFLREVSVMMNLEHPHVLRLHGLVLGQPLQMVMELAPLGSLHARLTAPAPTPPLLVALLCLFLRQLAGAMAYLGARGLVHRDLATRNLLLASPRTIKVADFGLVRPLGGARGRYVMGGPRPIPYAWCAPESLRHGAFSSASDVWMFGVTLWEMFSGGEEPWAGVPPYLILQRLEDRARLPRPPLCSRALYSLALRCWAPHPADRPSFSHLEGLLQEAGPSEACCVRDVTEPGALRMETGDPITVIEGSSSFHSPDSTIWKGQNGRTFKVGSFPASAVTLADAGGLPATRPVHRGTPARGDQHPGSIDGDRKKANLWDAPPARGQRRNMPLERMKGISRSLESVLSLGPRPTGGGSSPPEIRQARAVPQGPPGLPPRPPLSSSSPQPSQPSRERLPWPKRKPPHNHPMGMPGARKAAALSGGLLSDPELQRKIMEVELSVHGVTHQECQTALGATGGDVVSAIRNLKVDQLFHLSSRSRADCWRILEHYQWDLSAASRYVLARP
Description: CEREP protein kinase assay. It is filed as biochemical.

T3 sequence (P06239 whole entry): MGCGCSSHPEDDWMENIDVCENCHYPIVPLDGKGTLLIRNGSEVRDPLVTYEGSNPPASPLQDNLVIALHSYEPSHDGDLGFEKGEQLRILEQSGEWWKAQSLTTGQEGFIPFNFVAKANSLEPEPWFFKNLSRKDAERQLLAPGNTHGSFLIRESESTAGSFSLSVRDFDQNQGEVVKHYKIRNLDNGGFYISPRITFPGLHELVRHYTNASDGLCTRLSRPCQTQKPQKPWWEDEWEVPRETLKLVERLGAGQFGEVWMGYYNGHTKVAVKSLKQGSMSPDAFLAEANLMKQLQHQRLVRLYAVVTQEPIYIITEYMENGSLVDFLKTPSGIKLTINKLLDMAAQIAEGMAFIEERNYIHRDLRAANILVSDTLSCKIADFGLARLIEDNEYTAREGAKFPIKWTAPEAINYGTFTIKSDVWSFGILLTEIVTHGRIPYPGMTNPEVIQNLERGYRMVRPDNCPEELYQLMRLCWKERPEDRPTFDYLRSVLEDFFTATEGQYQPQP

In the case of `O=c1[nH]ccc2cc(F)c(NS(=O)(=O)c3ccc(N4CC[C@@H](O)C4)s3)cc12` [LSN3213128, N-(6-Fluoro-1-oxo-1,2-dihydroisoquinolin-7-yl)-5-[(3R)-3-hydroxypyrrolidin-1-yl]thiophene-2-sulfonamide], in the assay on MDA-MB-231met2 (32 μM hypoxanthine), the “anti-proliferative effect on supplementation with hypoxanthine” value is recorded as “completely abrogated”. In addition, the GI50 (commonly the concentration at which growth is held to half of that of the control) in the assay on MDA-MB-231met2 (Homo sapiens, RPMI media, Alamar Blue) was determined as 88 nM. Moreover, the “protein kinase activity, panel” value in the assay on protein kinase is reported as “no significant protein kinase activity”. In addition, the inhibition (in general, the relative decrease from the control value, in per cent) at 0.2 µM against CDK2 (@ 0.2 uM) is -10.2%; against FLT4 (@ 0.2 uM) it was -9.28%; on LCK (@ 0.2 uM), -24.6%; against NEK2 (@ 0.2 uM) it was -9.52%; at TNK1 (@ 0.2 uM), -11.5%. Besides, the inhibition at 2 µM was -1.29% at CDK2 (@ 2 uM); 6.53% against FLT4 (@ 2 uM); -4.9% against LCK (@ 2 uM); 5.24% against NEK2 (@ 2 uM); -5.26% on TNK1 (@ 2 uM). In addition, the inhibition at 20 µM is 29.2% against CDK2 (@ 20 uM); 70.5% against FLT4 (@ 20 uM); 2.61% at LCK (@ 20 uM); -6.75% against NEK2 (@ 20 uM); -3.7% at TNK1 (@ 20 uM).
